{"source": "patent US9309308B2", "about": "“Monoclonal antibodies for tumor treatment” (CURETECH LTD., priority 2008, dated 2016)", "key": {"[1]": {"tested_on": "murine lymphocytes", "test": "In vitro functional assay based on viability of murine lymphocytes", "type": "cell-based", "description": "FIG. 1C. The effect of 5FU or vehicle control in the functional assay presented as viable cells/ml. The incubation time with 5FU or vehicle control (72 hours) is indicated on the x-axis."}, "[2]": {"target": "T1, topoisomerase I (Homo sapiens, UniProt P11387)", "T1 sequence (P11387 1-765)": "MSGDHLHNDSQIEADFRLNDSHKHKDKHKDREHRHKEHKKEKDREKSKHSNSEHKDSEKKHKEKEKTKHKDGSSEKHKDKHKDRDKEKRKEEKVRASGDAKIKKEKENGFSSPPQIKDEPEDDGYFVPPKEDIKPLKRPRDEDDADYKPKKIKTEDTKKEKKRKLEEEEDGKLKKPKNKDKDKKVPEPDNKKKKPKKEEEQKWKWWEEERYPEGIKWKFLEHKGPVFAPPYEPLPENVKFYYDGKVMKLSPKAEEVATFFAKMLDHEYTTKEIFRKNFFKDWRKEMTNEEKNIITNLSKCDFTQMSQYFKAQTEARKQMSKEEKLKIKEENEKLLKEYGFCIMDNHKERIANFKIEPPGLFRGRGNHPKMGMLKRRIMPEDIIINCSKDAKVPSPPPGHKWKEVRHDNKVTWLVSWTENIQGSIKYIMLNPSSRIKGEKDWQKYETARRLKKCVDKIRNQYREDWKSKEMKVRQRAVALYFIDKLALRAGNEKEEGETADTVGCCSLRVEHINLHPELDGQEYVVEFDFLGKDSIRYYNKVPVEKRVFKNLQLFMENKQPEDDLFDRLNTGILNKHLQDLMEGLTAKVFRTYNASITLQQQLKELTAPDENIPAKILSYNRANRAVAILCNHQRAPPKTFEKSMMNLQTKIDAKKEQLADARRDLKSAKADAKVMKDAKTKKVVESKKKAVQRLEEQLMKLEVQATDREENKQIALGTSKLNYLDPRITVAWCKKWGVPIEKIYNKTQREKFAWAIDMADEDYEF", "conditions": "cited from earlier work"}, "[3]": {"test": "Phase I clinical trial of CT-011, pharmacokinetics", "conditions": "Table 2 patients"}, "[4]": {"conditions": "human, in vivo"}, "[5]": {"tested_on": "advanced hematological malignancies"}, "[6]": {"conditions": "murine lymphocytes, agent combined with hBAT-1"}, "[7]": {"conditions": "AML patient receiving CT-011 at 0.2 and 3 mg/kg"}, "[8]": {"conditions": "Pt. 003/016, AML, 0.2/3.0 mg/kg"}}, "note": "Where “and” joins values, the source holds several entries; their conditions need not be identical. Equal values may be shown once. Read-outs that look alike come from different tables or passages of the source.", "data": [{"compound": "Nc1ccn([C@@H]2O[C@H](CO)[C@@H](O)[C@@H]2O)c(=O)n1", "note": "[cytarabine]", "values": [{"measurement": "effect of chemotherapeutic agent on the activity of hBAT-1", "setting": "[1]; [6]", "result": "do not adversely affect the activity of hBAT-1"}]}, {"compound": "O=P1(N(CCCl)CCCl)NCCCO1", "note": "(stereo not drawn) [cyclophosphamide]", "values": [{"measurement": "cell survival when given in combination with hBAT-1", "setting": "[1]; murine lymphocyte culture", "result": "do not enhance cell survival"}]}, {"compound": "CCc1c2c(nc3ccc(O)cc13)-c1cc3c(c(=O)n1C2)COC(=O)[C@]3(O)CC", "note": "[SN-38, 7-ethyl-10-hydroxy-camptothecin]", "values": [{"measurement": "cell survival when given in combination with hBAT-1", "setting": "[1]", "result": "do not enhance cell survival"}, {"measurement": "potency relative to parent compound irinotecan", "setting": "[2]", "result": "One thousand-fold more potent"}]}, {"compound": "hBAT-1: humanized monoclonal antibody with CDRs of murine mBAT-1 and human framework regions", "values": [{"measurement": "median t1/2 of the 6 patients with apparent clinical response versus the rest", "setting": "[3]", "result": "somewhat higher than that of the rest of the patients"}, {"measurement": "highest half life", "setting": "[4]", "result": 17.1, "unit": "days"}, {"measurement": "patients reporting adverse events (AE)", "setting": "[5]; 11 of 18", "result": 61, "unit": "%"}, {"measurement": "changes in disease parameters", "setting": "[5]; 21 days, 2 CLL, 4 NHL and one Multiple Myeloma patient", "result": "no changes in disease parameters"}, {"measurement": "clinical response", "setting": "[5]; [7]", "result": "minimal response"}, {"measurement": "time to progression after receiving CT-011", "setting": "[5]; [7]", "result": 61, "unit": "weeks"}, {"measurement": "change in average percentage of blasts in the peripheral blood", "setting": "[5]; AML patients, 21 days, excluding one patient", "result": "no change"}, {"measurement": "duration of stable disease", "setting": "[5]; CLL patient, 0.6 mg/kg", "result": 36, "unit": "weeks"}, {"measurement": "duration of stable disease", "setting": "[5]; CLL patient, 1.5 mg/kg", "result": "over 78 weeks"}, {"measurement": "duration of stable disease", "setting": "[5]; HD patient, 0.6 mg/kg", "result": 35, "unit": "weeks"}, {"measurement": "duration of stable disease", "setting": "[5]; MM patient, 6.0 mg/kg", "result": "over 60 weeks"}, {"measurement": "Overall Survival (Weeks)", "setting": "[5]; [8]", "result": 61, "unit": "Weeks"}, {"measurement": "platelet transfusion-independent period", "setting": "[5]; [8]", "result": "for 9 months"}, {"measurement": "reduction in peripheral blasts", "setting": "[5]; Pt. 003/016, AML, on first dose (0.2 mg/kg)", "result": "(50% to 5%) on first dose"}, {"measurement": "Overall Survival (Weeks)", "setting": "[5]; Pt. 005, CLL, 0.6 mg/kg", "result": 36, "unit": "Weeks"}, {"measurement": "Overall Survival (Weeks)", "setting": "[5]; Pt. 006, HD, 0.6 mg/kg", "result": 35, "unit": "Weeks"}, {"measurement": "Overall Survival (Weeks)", "setting": "[5]; Pt. 008, CLL, 1.5 mg/kg", "result": ">78", "unit": "Weeks"}, {"measurement": "duration stable", "setting": "[5]; Pt. 008, CLL, 1.5 mg/kg", "result": "Stable for >17 months"}, {"measurement": "Overall Survival (Weeks)", "setting": "[5]; Pt. 015, NHL, 3.0 mg/kg", "result": ">68", "unit": "Weeks"}, {"measurement": "tumor masses by CT scan", "setting": "[5]; Pt. 015, follicular lymphoma, 10 months post CT-011 treatment", "result": "complete elimination of tumor masses"}, {"measurement": "Overall Survival (Weeks)", "setting": "[5]; Pt. 017, MM, 6.0 mg/kg", "result": ">60", "unit": "Weeks"}, {"measurement": "duration stable", "setting": "[5]; Pt. 017, MM, 6.0 mg/kg", "result": "Stable for >13 months"}, {"measurement": "cumulative survival of all patients", "setting": "[5]; at 21 days, n=18", "result": 76, "unit": "%"}, {"measurement": "most frequent AE", "setting": "[5]; concluded not associated with CT-011 treatment", "result": "diarrhea"}, {"measurement": "patients with apparent response to treatment", "setting": "[5]; follow-up", "result": 6, "unit": "patients"}, {"measurement": "mean survival time", "setting": "[5]; follow-up beyond 21 days, all patients, listed as CT-011", "result": "25±27 weeks and 25 weeks"}, {"measurement": "difference in mean survival time across the dose groups", "setting": "[5]; human, in vivo", "result": "No difference"}, {"measurement": "serious adverse events", "setting": "[5]; number, all resulted in death, in AML patients", "result": "Four"}, {"measurement": "sustained remission", "setting": "[5]; patient #015, following CT-011 treatment", "result": 68, "unit": "weeks"}, {"measurement": "clinical response", "setting": "[5]; patient #015, stage III follicular lymphoma, 3.0 mg/kg", "result": "complete remission"}, {"measurement": "dose-limiting toxicity (DLT)", "setting": "[5]; single dose 0.2 to 6 mg/kg", "result": "No DLT was reached"}, {"measurement": "maximum tolerated dose (MTD)", "setting": "[5]; single dose 0.2 to 6 mg/kg", "result": "No single dose MTD was found"}, {"measurement": "safety and tolerability", "setting": "[5]; single dose 0.2 to 6 mg/kg", "result": "safe and well tolerated with no treatment-related toxicities"}]}, {"compound": "CC(=O)O[C@H]1C(=O)[C@@]2(C)[C@H]([C@H](OC(=O)c3ccccc3)[C@]3(O)C[C@H](OC(=O)[C@H](O)[C@@H](NC(=O)c4ccccc4)c4ccccc4)C(C)=C1C3(C)C)[C@]1(OC(C)=O)CO[C@@H]1C[C@@H]2O", "note": "[paclitaxel]", "values": [{"measurement": "effect of chemotherapeutic agent on the activity of hBAT-1", "setting": "[1]; [6]", "result": "do not adversely affect the activity of hBAT-1"}]}, {"compound": "O=c1[nH]cc(F)c(=O)[nH]1", "note": "[5FU, 5-fluorouracil]", "values": [{"measurement": "effect of chemotherapeutic agent on the activity of hBAT-1", "setting": "[1]; [6]", "result": "do not adversely affect the activity of hBAT-1"}, {"measurement": "cell survival with chemotherapeutic agent on its own", "setting": "[1]; without hBAT-1, FIG. 1C", "result": "did not enhance cell survival"}]}, {"compound": "N.N.[Cl][Pt][Cl]", "note": "[cisplatin, cis-diamminedichloridoplatinum II]", "values": [{"measurement": "effect of chemotherapeutic agent on the activity of hBAT-1", "setting": "[1]; [6]", "result": "do not adversely affect the activity of hBAT-1"}]}, {"compound": "O=C1[O][Pt]2([NH][C@@H]3CCCC[C@H]3[NH]2)[O]C1=O", "note": "[oxaliplatin]", "values": [{"measurement": "effect of chemotherapeutic agent on the activity of hBAT-1", "setting": "[1]", "result": "do not adversely affect the activity of hBAT-1"}]}]}
